Data taken from PMC8095115, “Dual regulation of TRPV1 channels by phosphatidylinositol via functionally distinct binding sites” (The Journal of Biological Chemistry, 2021).

Key:
[1] = target: TRPV1 (Rattus norvegicus, UniProt O35433); assay: excised inside-out patch clamp, Xenopus oocytes; partial inhibition with PtdIns([…])P2, partial activation without it; type: cell-based; details: read-out: % inhibition at 50 μM
[2] = target: TRPV1 (Rattus norvegicus, UniProt O35433, D509A); assay: excised inside-out patch clamp, Xenopus oocytes; type: cell-based
TRPV1 (Rattus norvegicus, UniProt O35433, D509A), sequence (O35433 whole entry D509A): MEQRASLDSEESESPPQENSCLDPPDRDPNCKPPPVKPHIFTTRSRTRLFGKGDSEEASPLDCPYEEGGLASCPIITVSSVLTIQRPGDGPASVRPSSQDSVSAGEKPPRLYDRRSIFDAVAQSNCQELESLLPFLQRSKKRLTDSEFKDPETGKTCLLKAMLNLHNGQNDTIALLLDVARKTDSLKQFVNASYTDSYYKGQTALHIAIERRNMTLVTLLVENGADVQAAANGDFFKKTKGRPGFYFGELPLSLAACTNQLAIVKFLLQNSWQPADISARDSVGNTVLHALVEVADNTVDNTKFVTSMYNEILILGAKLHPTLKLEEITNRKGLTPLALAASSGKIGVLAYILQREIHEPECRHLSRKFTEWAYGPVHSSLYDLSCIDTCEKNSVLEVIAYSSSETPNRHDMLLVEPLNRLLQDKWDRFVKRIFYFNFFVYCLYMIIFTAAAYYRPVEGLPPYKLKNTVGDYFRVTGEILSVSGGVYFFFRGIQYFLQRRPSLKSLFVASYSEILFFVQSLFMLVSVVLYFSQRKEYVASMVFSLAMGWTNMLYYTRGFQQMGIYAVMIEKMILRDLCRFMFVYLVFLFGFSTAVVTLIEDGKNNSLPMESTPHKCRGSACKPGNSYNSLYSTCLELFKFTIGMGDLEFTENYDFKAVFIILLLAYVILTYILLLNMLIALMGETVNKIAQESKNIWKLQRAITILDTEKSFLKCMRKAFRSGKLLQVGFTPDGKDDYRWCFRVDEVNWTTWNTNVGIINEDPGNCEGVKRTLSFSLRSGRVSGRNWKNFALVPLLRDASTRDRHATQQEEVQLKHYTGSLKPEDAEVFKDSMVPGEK

TRPV1 (Rattus norvegicus, UniProt O35433), sequence (O35433 whole entry): as the sequence (O35433 whole entry D509A) above, with A509D counted along it

inhibition at 50 µM [1]: ~50%
SMILES: CCCCCCCC(=O)OC[C@H](COP(=O)(O)O[C@@H]1[C@H](O)[C@H](O)[C@@H](O)[C@H](O)[C@H]1O)OC(=O)CCCCCCC [diC8 PtdIns]
excised inside-out patch clamp, Xenopus oocytes [2]: The D509A mutant on the other hand was clearly inhibited by PtdIns
